Reference: patent US12258609B2, “Method for producing glycerides of hydroxycarboxylic acids” (KetoLipix Therapeutics GmbH, priority 2019, dated 2025)
Where two headings read alike, the source gives them in different places.

What was measured:
[1] = test system: Panzytrat® 40,000 (pancreatin)
Experimental: (§1) For the cleavage experiments under near-body conditions two media are investigated: • FaSSGF, which simulates the stomach • FaSSIF, which simulates the intestinal tract
(§2) In addition, in some experiments porcine pancreas is added (Panzytrat® 40,000, Fa. Allergan).
(§3) Cleavage with Gastric Medium: FaSSGF Medium • A so-called FaSSGF medium is prepared according to the manufacturer's specifications from the commercially available corresponding composition (available from Biorelevant, Ltd., Great Britain). • The resulting sample is divided into two batches of equal size. 10 wt.-% of the ternary glyceride mixture based on mono-, di- and triglycerides of 3-hydroxybutyric acid, as described hereinabove, is dissolved in each FaSSGF medium and left in a water bath at 35° C. for 24 hours.

[2] = test system: Panzytrat® 40,000 (pancreatin); remark: listed apart in the source
Experimental: as §1
(§4) Both media are from the company Biorelevant®, Ltd. in Great Britain. In addition, in some experiments porcine pancreas is added (Panzytrat® 40,000, Fa. Allergan).
(§5) Cleavage with Bowl Medium: FaSSIF Medium • The FaSSIF medium is prepared according to the manufacturer's instructions (Fa. Biorelevant, Ltd., Great Britain). • The sample obtained is divided into two equally sized preparations. 10 wt.-% of the aforementioned glyceride mixture based on a mixture of mono-, di- and triglycerides of 3-hydroxybutyric acids is dissolved in each FaSSIF medium and left in a water bath at 35° C. for 24 hours.

[3] = test system: porcine pancreatic lipase type II (PPL type II)
Experimental: (§6) Further Cleavage with Bowl Medium: FaSSIF Medium • The FaSSIF medium is prepared according to the previous test according to the manufacturer's instructions. • The resulting sample is divided into two batches of equal size. 10 wt.-% of the ternary glyceride mixture of mono-, di- and triglycerides of 3-hydroxybutyric acids according to the invention is dissolved in each FaSSIF medium and left in a water bath at 35° C. for 24 hours.

[4] = test system: pancreatin (Panzytrat® 40,000); assay: Cleavage experiments with pancreatin in water, acid number over time; format: in vitro ADME, porcine; settings: test repeated on individual glycerides, 50° C.
[5] = test system: porcine pancreatic lipase type II (PPL type II); assay: Cleavage experiments with and without porcine pancreatic lipase in FaSSIF medium; settings: for with enzyme, 24 h, 35° C. / without enzyme 24 h, 35° C. / before splitting 0 h: the 14th table; for with enzyme, 24 h, 35° C.: FaSSIF medium pH 6.5, 1 wt.-% porcine pancreatic lipase type II; for without enzyme 24 h, 35° C.: FaSSIF medium pH 6.5, without enzyme; for before splitting 0 h: FaSSIF medium
Experimental: as §6

[6] = test system: Panzytrat® 40,000 (pancreatin); assay: Cleavage experiments with and without Panzytrat 40,000 in FaSSIF medium (simulates the intestinal tract, pH 6.5); settings: for share in chromatogram, FaSSIF 0 h, Start / share in chromatogram, FaSSIF m.P. 24 h, 35° C. / share in chromatogram, FaSSIF o.P. 24 h, 35° C.: the 11th table, FaSSIF (bowel, pH = 6.5); for share in chromatogram, FaSSIF m.P. 24 h, 35° C.: with Panzytrat; for share in chromatogram, FaSSIF o.P. 24 h, 35° C.: without Panzytrat; for with Panzytrat 24 h, 35° C. / without Panzytrat 24 h, 35° C. / before splitting 0 h: the 13th table, in %; for with Panzytrat 24 h, 35° C.: FaSSIF medium pH 6.5, 1 wt.-% Panzytrat 40,000, 24 h; for without Panzytrat 24 h, 35° C.: FaSSIF medium pH 6.5, without Panzytrat; for before splitting 0 h: FaSSIF medium; for change of content in FaSSIF medium: pH 6.5, 35° C., 24 hours, with and without pancreatin
Experimental: as §1, §4, §5

[7] = test system: Panzytrat® 40,000 (pancreatin); assay: Cleavage experiments with and without Panzytrat 40,000 in FaSSGF medium (simulates the stomach, pH 1.6); settings: for share in chromatogram, FaSSGF m.P. 24 h, 35° C. / share in chromatogram, FaSSGF o.P. 24 h, 35° C. / share in chromatogram, before splitting: the 11th table; for share in chromatogram, FaSSGF m.P. 24 h, 35° C. / share in chromatogram, FaSSGF o.P. 24 h, 35° C.: FaSSGF (stomach, pH = 1.6); for share in chromatogram, FaSSGF m.P. 24 h, 35° C.: with Panzytrat; for share in chromatogram, FaSSGF o.P. 24 h, 35° C.: without Panzytrat; for share in chromatogram, before splitting: starting mixture (crude high-boiling fraction) before splitting; for before splitting: the 12th table, FaSSGF medium; for change of content in FaSSGF medium: pH 1.6, 35° C., 24 hours, both with and without pancreatin
Experimental: as §1, §2, §3

[8] = even if several grams are taken; acid and its salts; cited from earlier work

## CC(O)CC(=O)OC(C)CC(=O)O (centres unmarked) [3-BHB dimer, dimer of 3-hydroxybutyrate]
[1]
  before splitting: 0.71 % area
  share in chromatogram, FaSSGF m.P. 24 h, 35° C.: 0.45 % area
  share in chromatogram, FaSSGF o.P. 24 h, 35° C.: 0.35 % area
  share in chromatogram, before splitting: 0.71 % area
[2]
  before splitting 0 h: 0.70
  share in chromatogram, FaSSIF 0 h, Start: 0.70 % area
  share in chromatogram, FaSSIF m.P. 24 h, 35° C.: 0.72 % area
  share in chromatogram, FaSSIF o.P. 24 h, 35° C.: 0.72 % area
[2]; pH 6.5
  with Panzytrat 24 h, 35° C.: 0.72
  without Panzytrat 24 h, 35° C.: 0.72
[3]
  before splitting 0 h: 0.7%
[3]; pH 6.5
  with enzyme, 24 h, 35° C.: 0.71%
  without enzyme 24 h, 35° C.: 0.72%

## CC(O)CC(=O)OCC(O)CO (centres unmarked) [3-BHB-MG, monoglyceride of 3-hydroxybutyric acid]
[4]
  cleavage of the individual glycerides by pancreatin: cleaved by pancreatin to the free 3-hydroxybutyric acid
[5]
  with enzyme, 24 h, 35° C.: 15.98
  without enzyme 24 h, 35° C.: 12.26
  before splitting 0 h: 13.52
[6]
  share in chromatogram, FaSSIF 0 h, Start: 13.52 % area
  share in chromatogram, FaSSIF m.P. 24 h, 35° C.: 14.34 % area
  share in chromatogram, FaSSIF o.P. 24 h, 35° C.: 12.26 % area
  with Panzytrat 24 h, 35° C.: 14.34
  without Panzytrat 24 h, 35° C.: 12.26
  before splitting 0 h: 13.52
[7]
  share in chromatogram, FaSSGF m.P. 24 h, 35° C.: 18.41 % area
  share in chromatogram, FaSSGF o.P. 24 h, 35° C.: 21.09 % area
  share in chromatogram, before splitting: 18.28 % area
  before splitting: 18.28 % area

## CC(O)CC(=O)O (centres unmarked) [3-BHB-FS, 3-hydroxybutyric acid]
[1]; 0 h
  before splitting: 0.43 % area
[1]; 0 h, 10 wt.-%, pH 1.6
  share in chromatogram, before splitting: 0.43 % area
[1]; 24 h, 10 wt.-%, pH 1.6
  share in chromatogram, FaSSGF o.P. 24 h, 35° C.: 26.21 % area
[1]; pH 1.6
  change of content in FaSSGF medium: strong increase
[1]; pig, 24 h, 10 wt.-%, pH 1.6
  share in chromatogram, FaSSGF m.P. 24 h, 35° C.: 18.85 % area
[8]
  duration of ketosis: about three to four
[3]; 0 h, 10 wt.-%, pH 6.5
  before splitting 0 h: 0.04%
[3]; 24 h, 10 wt.-%, pH 6.5
  without enzyme 24 h, 35° C.: 0.02%
[3]; pH 6.5
  change of content in FaSSIF medium with porcine pancreatic lipase: slight increase
[3]; pig, 24 h, 10 wt.-%, pH 6.5
  with enzyme, 24 h, 35° C.: 1.79%
[6]; FaSSIF conditions using Panzytrat
  conversion or cleavage, free acid formed: 2.6%
[6]
  change of content in FaSSIF medium: slight increase
  share in chromatogram, FaSSIF 0 h, Start: 0.04 % area
  share in chromatogram, FaSSIF m.P. 24 h, 35° C.: 2.60 % area
  share in chromatogram, FaSSIF o.P. 24 h, 35° C.: 0.02 % area
  with Panzytrat 24 h, 35° C.: 2.60
  without Panzytrat 24 h, 35° C.: 0.02
  before splitting 0 h: 0.04

## CC(O)CC(=O)OCC(COC(=O)CC(C)O)OC(=O)CC(C)O (centres unmarked) [3-BHB-TG, triglyceride of 3-hydroxybutyric acid]
[4]
  cleavage of the individual glycerides by pancreatin: cleaved by pancreatin to the free 3-hydroxybutyric acid
[5]; FaSSIF, pH 6.5, 35° C., 24 hours, 1 wt.-% PPL type II
  change of content in FaSSIF medium with porcine pancreatic lipase: slight decrease
[5]
  with enzyme, 24 h, 35° C.: 13.38
  without enzyme 24 h, 35° C.: 16.79
  before splitting 0 h: 16.40
[6]
  change of content in FaSSIF medium: slight decrease
  share in chromatogram, FaSSIF 0 h, Start: 16.40 % area
  share in chromatogram, FaSSIF m.P. 24 h, 35° C.: 12.83 % area
  share in chromatogram, FaSSIF o.P. 24 h, 35° C.: 16.79 % area
  with Panzytrat 24 h, 35° C.: 12.83
  without Panzytrat 24 h, 35° C.: 16.79
  before splitting 0 h: 16.40
[7]
  change of content in FaSSGF medium: significant decrease
  share in chromatogram, FaSSGF m.P. 24 h, 35° C.: 10.12 % area
  share in chromatogram, FaSSGF o.P. 24 h, 35° C.: 7.55 % area
  share in chromatogram, before splitting: 16.08 % area
  before splitting: 16.08 % area

## CC(O)CC(=O)OCC(CO)OC(=O)CC(C)O (centres unmarked) [3-BHB-DG, diglyceride of 3-hydroxybutyric acid]
[4]
  cleavage of the individual glycerides by pancreatin: cleaved by pancreatin to the free 3-hydroxybutyric acid
[5]
  with enzyme, 24 h, 35° C.: 59.84
  without enzyme 24 h, 35° C.: 60.93
  before splitting 0 h: 60.17
[6]
  share in chromatogram, FaSSIF 0 h, Start: 60.17 % area
  share in chromatogram, FaSSIF m.P. 24 h, 35° C.: 61.38 % area
  share in chromatogram, FaSSIF o.P. 24 h, 35° C.: 60.93 % area
  with Panzytrat 24 h, 35° C.: 61.38
  without Panzytrat 24 h, 35° C.: 60.93
  before splitting 0 h: 60.17
[7]
  change of content in FaSSGF medium: significant decrease
  share in chromatogram, FaSSGF m.P. 24 h, 35° C.: 44.09 % area
  share in chromatogram, FaSSGF o.P. 24 h, 35° C.: 37.01 % area
  share in chromatogram, before splitting: 55.85 % area
  before splitting: 55.85 % area
